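In this assay, cells in 96-well plates receive the compound at five concentrations for 48 hours. Endpoints are linearly interpolated between the surrounding concentrations. GI50 is the concentration that inhibits growth by half. The concentration for full growth arrest is given as TGI.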
What was measured:
Assay in all cases: inhibition of tumour cell growth, NCI panel, 48 h
[1] = test system: UO-31 renal
[2] = test system: OVCAR-8 ovarian
[3] = test system: IGROV1 ovarian
[4] = test system: CAKI-1 renal
[5] = test system: CCRF-CEM leukemia
[6] = test system: SN12C renal
[7] = test system: HOP-92 NSCLC
[8] = test system: NCI-H522 lung
[9] = test system: ACHN renal
[10] = test system: HS 578T breast
[11] = test system: SK-MEL-28 melanoma
[12] = test system: MALME-3M melanoma
[13] = test system: UACC-62 melanoma
[14] = test system: COLO 205 colon
[15] = test system: K-562 leukemia
[16] = test system: HL-60(TB) leukemia
[17] = test system: NCI/ADR-RES ovarian
[18] = test system: SR leukemia
[19] = test system: 786-0 renal
[20] = test system: M14 melanoma
[21] = test system: NCI-H226 lung
[22] = test system: MDA-MB-231 breast
[23] = test system: SK-MEL-2 melanoma
[24] = test system: EKVX NSCLC
[25] = test system: OVCAR-4 ovarian
[26] = test system: HCT-116 colon
[27] = test system: HCC-2998 colon
[28] = test system: DU-145 prostate
[29] = test system: OVCAR-3 ovarian
[30] = test system: RXF 393 renal
[31] = test system: HCT-15 colon
[32] = test system: U251 CNS
[33] = test system: SF-539 CNS
[34] = test system: SF-268 CNS
[35] = test system: A549 NSCLC
[36] = test system: SNB-19 CNS
[37] = test system: T-47D breast
[38] = test system: NCI-H460 lung
[39] = test system: MCF7 breast
[40] = test system: PC-3 prostate
[41] = test system: UACC-257 melanoma
[42] = test system: TK-10 renal
[43] = test system: HT29 colon
[44] = test system: NCI-H23 lung
[45] = test system: BT-549 breast
[46] = test system: MDA-MB-435
[47] = test system: A498 renal
[48] = test system: HOP-62 NSCLC
[49] = test system: SK-MEL-5 melanoma
[50] = test system: OVCAR-5 ovarian
[51] = test system: SK-OV-3 ovarian
[52] = test system: SW-620 colon
[53] = test system: SF-295 CNS
[54] = test system: KM12 colon
[55] = test system: LOX IMVI melanoma
[56] = test system: SNB-75 CNS
[57] = test system: RPMI-8226 leukemia

O=C1/C(=C/c2cccc(O)c2)COc2ccccc21
TGI [1]: 24.8 µM
TGI [2]: 24.4 µM
TGI [3]: 23.1 µM
TGI [4]: 11.9 µM
TGI [5]: > 100 µM
TGI [6]: 19.8 µM
TGI [7]: > 55.6 µM
TGI [8]: 5.82 µM
TGI [9]: 3.89 µM
TGI [10]: 43.6 µM
TGI [11]: 11.9 µM
TGI [12]: 26.3 µM
TGI [13]: 9.81 µM
TGI [14]: 31.6 µM
TGI [15]: > 33.2 µM
TGI [16]: 63.8 µM
TGI [17]: 5.25 µM
TGI [18]: > 100 µM
TGI [19]: 14.5 µM
TGI [20]: 13 µM
TGI [21]: 32.4 µM
TGI [22]: 21.4 µM
TGI [23]: 34.6 µM
TGI [24]: 34 µM
TGI [25]: 21.8 µM
TGI [26]: 3.32 µM
TGI [27]: 1.48 µM
TGI [28]: 28.1 µM
TGI [29]: 4.85 µM
TGI [30]: 29 µM
TGI [31]: 3.26 µM
TGI [32]: 3.8 µM
TGI [33]: 25.8 µM
TGI [34]: 40.8 µM
TGI [35]: 47.2 µM
TGI [36]: 21.8 µM
TGI [37]: 21.1 µM
TGI [38]: 54.6 µM
TGI [39]: > 43.6 µM
TGI [40]: > 53.8 µM
TGI [41]: 7.29 µM
TGI [42]: 31.2 µM
TGI [43]: 11.4 µM
TGI [44]: 18.1 µM
TGI [45]: 49.5 µM
TGI [46]: 17.2 µM
TGI [47]: 34.7 µM
TGI [48]: 28.4 µM
TGI [49]: 22.8 µM
TGI [50]: 26.6 µM
TGI [51]: 46.3 µM
TGI [52]: 6.79 µM
TGI [53]: 33.4 µM
TGI [54]: 7.09 µM
TGI [55]: 3.92 µM
TGI [56]: 34.5 µM

COc1cc(OC)cc(Oc2nc3cc(N)cc(N)c3nc2-c2ccccc2)c1
TGI [1]: 15.3 µM
GI50 [2]: 2.9 µM
TGI [2]: 16.3 µM
GI50 [3]: 2.62 µM
TGI [3]: 12.3 µM
TGI [4]: 24.1 µM
GI50 [5]: 1.97 µM
TGI [5]: 8.67 µM
TGI [6]: 22.3 µM
GI50 [7]: 1.36 µM
TGI [7]: 8.9 µM
GI50 [8]: 0.891 µM
TGI [8]: 4.31 µM
TGI [9]: 17.9 µM
GI50 [10]: 1.32 µM
TGI [10]: 4.19 µM
GI50 [11]: 3.18 µM
TGI [11]: 15.5 µM
GI50 [12]: 0.426 µM
TGI [12]: 5.09 µM
GI50 [13]: 4.04 µM
TGI [13]: 18 µM
GI50 [14]: 10.6 µM
TGI [14]: 22.4 µM
GI50 [15]: 3.77 µM
TGI [15]: 32.4 µM
GI50 [16]: 3.07 µM
TGI [16]: 25.9 µM
GI50 [17]: 1.13 µM
TGI [17]: 3.85 µM
GI50 [18]: 1.85 µM
TGI [18]: 28.9 µM
TGI [19]: 11.4 µM
TGI [57]: 8.42 µM
GI50 [20]: 1.6 µM
TGI [20]: 7.76 µM
GI50 [21]: 6.55 µM
TGI [21]: 43 µM
GI50 [22]: 4.02 µM
TGI [22]: 21.8 µM
GI50 [23]: 2.29 µM
TGI [23]: 10.2 µM
GI50 [24]: 3.77 µM
TGI [24]: 19.3 µM
GI50 [25]: 2.89 µM
TGI [25]: 16.2 µM
GI50 [26]: 2.36 µM
TGI [26]: 10.1 µM
GI50 [27]: 2.52 µM
TGI [27]: 13.7 µM
TGI [28]: 25.1 µM
GI50 [29]: 2.22 µM
TGI [29]: 8.65 µM
TGI [30]: 4.41 µM
GI50 [31]: 2.04 µM
TGI [31]: 12.4 µM
GI50 [32]: 2.6 µM
TGI [32]: 10.8 µM
GI50 [34]: 1.75 µM
TGI [34]: 7.13 µM
GI50 [35]: 2.88 µM
TGI [35]: 13.2 µM
GI50 [36]: 2.49 µM
TGI [36]: 12.5 µM
GI50 [37]: 2.37 µM
TGI [37]: 9.13 µM
GI50 [38]: 2.92 µM
TGI [38]: 12.5 µM
GI50 [39]: 1.69 µM
TGI [39]: 4.53 µM
TGI [40]: 17.4 µM
GI50 [41]: 2.19 µM
TGI [41]: 12.3 µM
TGI [42]: 8.44 µM
GI50 [43]: 4.37 µM
TGI [43]: 17.8 µM
GI50 [44]: 1.69 µM
TGI [44]: 12.7 µM
GI50 [45]: 1.49 µM
TGI [45]: 6.92 µM
GI50 [46]: 0.392 µM
TGI [46]: 1.83 µM
TGI [47]: 14.4 µM
GI50 [48]: 2.14 µM
TGI [48]: 12.8 µM
GI50 [49]: 1.89 µM
TGI [49]: 6.47 µM
GI50 [50]: 3.24 µM
TGI [50]: 16.4 µM
GI50 [51]: 3.49 µM
TGI [51]: 16.3 µM
GI50 [52]: 2.26 µM
TGI [52]: 10.2 µM
GI50 [53]: 2.21 µM
TGI [53]: 8.49 µM
GI50 [54]: 1.03 µM
TGI [54]: 6.07 µM
GI50 [55]: 2.95 µM
TGI [55]: 13 µM
GI50 [56]: 0.127 µM
TGI [56]: 2.67 µM

Reference: PubChem BioAssay (NCI)
